Key:
[1] = biological target: T1, Peroxisome proliferator-activated receptor alpha (Homo sapiens, UniProt Q07869); experiment: Modulator activity at GAL4-fused human PPARalpha LBD (unknown origin) transfected in African green monkey CV1 cells assessed as receptor transactivation by luciferase reporter gene assay; type: cell-based, CV-1
T1 sequence (Q07869 whole entry): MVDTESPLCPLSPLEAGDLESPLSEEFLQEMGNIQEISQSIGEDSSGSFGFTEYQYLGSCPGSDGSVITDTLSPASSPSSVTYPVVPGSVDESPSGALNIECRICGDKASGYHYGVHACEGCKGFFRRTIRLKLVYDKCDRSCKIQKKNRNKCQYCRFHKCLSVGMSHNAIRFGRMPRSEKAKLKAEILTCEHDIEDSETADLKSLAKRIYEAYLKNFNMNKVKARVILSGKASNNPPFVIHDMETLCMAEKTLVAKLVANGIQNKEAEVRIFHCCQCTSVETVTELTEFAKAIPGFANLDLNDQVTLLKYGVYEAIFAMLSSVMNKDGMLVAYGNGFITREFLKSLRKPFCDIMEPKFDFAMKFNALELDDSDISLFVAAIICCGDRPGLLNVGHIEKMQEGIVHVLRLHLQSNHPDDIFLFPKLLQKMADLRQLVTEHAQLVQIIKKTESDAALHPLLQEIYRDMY

[2] = biological target: T2, Peroxisome proliferator-activated receptor gamma (Homo sapiens, UniProt P37231); experiment: Modulator activity at GAL4-fused human PPARgamma LBD (unknown origin) transfected in African green monkey CV1 cells assessed as receptor transactivation by luciferase reporter gene assay; type: cell-based, CV-1
T2 sequence (P37231 whole entry): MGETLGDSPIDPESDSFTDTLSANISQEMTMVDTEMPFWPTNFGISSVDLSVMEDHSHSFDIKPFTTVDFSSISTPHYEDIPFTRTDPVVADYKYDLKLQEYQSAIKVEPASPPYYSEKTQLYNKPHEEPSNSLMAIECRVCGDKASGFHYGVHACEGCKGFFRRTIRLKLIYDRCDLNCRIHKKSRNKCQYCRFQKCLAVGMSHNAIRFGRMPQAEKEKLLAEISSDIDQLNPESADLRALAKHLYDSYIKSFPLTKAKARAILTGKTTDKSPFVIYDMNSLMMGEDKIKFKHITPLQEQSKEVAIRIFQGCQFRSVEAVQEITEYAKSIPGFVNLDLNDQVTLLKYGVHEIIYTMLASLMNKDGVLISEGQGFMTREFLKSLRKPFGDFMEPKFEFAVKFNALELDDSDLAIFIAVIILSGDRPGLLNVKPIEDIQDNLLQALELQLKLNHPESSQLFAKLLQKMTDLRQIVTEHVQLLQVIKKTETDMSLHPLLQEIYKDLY

[3] = Half life in CD-1 mouse at 3 mg/kg, iv; type: ADME, organism-based; settings: in vivo
[4] = Clearance in CD-1 mouse at 3 mg/kg, iv; type: ADME, organism-based; settings: in vivo
[5] = AUC in CD-1 mouse at 3 mg/kg, iv; type: ADME, organism-based; design: dose 3 mg/kg; settings: in vivo
[6] = Selectivity index, ratio of EC50 for transactivation of GAL4-fused PPARalpha LBD (unknown origin) transfected in CV1 cells to EC50 for transactivation of GAL4-fused human PPARdelta LBD (128 to residue at C-terminus) transfected in African green monkey CV1 cells by luciferase reporter gene assay
[7] = biological target: T3, Peroxisome proliferator-activated receptor delta (Homo sapiens, UniProt Q03181)
T3 sequence (Q03181 whole entry): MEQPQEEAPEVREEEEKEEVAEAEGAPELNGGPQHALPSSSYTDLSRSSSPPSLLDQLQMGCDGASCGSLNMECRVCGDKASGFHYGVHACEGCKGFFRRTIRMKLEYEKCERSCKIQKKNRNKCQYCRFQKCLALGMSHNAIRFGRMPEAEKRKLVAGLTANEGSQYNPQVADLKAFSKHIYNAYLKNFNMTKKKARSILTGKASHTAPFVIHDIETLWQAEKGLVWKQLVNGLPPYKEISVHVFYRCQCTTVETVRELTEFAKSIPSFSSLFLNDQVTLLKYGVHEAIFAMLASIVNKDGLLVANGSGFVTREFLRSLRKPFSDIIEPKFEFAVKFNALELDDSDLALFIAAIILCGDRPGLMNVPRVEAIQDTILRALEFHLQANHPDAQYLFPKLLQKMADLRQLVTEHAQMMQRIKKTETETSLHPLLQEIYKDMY
Description: Modulator activity at GAL4-fused human PPARdelta LBD (128 to residue at C-terminus) transfected in African green monkey CV1 cells assessed as receptor transactivation by luciferase reporter gene assay

EC50 [1] [µM]	EC50 [2] [µM]	half-life [3] [min]	clearance [4] [mL/min/kg]	AUC [5] [ng·h/mL]	EC50 [7] [µM]	Structure (SMILES)	Ratio EC50 [6]
> 100	> 10	84	73	650		Cc1cnc(-c2ccc(-c3ccco3)cc2)n1Cc1ccccc1OCCC[C@@H](C)CC(=O)O	
	> 10	144	120	400		Cc1cnc(-c2ccc(-c3ccco3)cc2)n1Cc1ccccc1OCCCCC(C)(C)C(=O)O	
> 100	> 10					Cc1cnc(-c2ccc(F)cc2)n1Cc1ccccc1OCCC[C@@H](C)CC(=O)O	
13.1	5.53	24	130	380		C/C(=C\COc1ccccc1Cc1c(C)n[nH]c1-c1ccc(-c2ccco2)cc1)CCC(=O)O	>1000
0.412	> 10	48	300	170	0.0013	C/C(=C\COc1ccccc1Cc1c(-c2ccc(-c3ccco3)cc2)ncn1C)CCC(=O)O	>1000
5.84	> 10	12	180	280	0.0015	C/C(=C\COc1ccccc1Cc1c(-c2ccc(-c3ccco3)cc2)noc1C)CCC(=O)O	>1000
78.5	> 10				0.02	Cc1ccc(-c2ncc(C)n2Cc2ccccc2OCCC[C@@H](C)CC(=O)O)cc1	
16.8	> 10	12	225	220	0.0084	C/C(=C\COc1ccccc1Cc1c(C)nnn1-c1ccc(-c2ccco2)cc1)CCC(=O)O	>1000
7.25	> 10	48	55	900	0.0095	C/C(=C\COc1ccccc1Cc1sc(C)nc1-c1ccc(-c2ccco2)cc1)CCC(=O)O	>1000

From ChEMBL document CHEMBL4715826, “Selective PPARδ Modulators Improve Mitochondrial Function: Potential Treatment for Duchenne Muscular Dystrophy (DMD)” (ACS Med Chem Lett, 2018)
